Assays:
platelet cyclo-oxygenase = details: horse, oral; cited from earlier work
[1] = tested on: PRRS (Porcine Respiratory and Reproductive Syndrome) Virus; assay: PRRS virus outbreak in swine nursery, Ketoprofen orally; format: in vivo; details: orally for 7 days along with same other therapy as controls
Text: A swine client with a 10,000 head nursery was experiencing severe mortality due to a PRRS (Porcine Respiratory and Reproductive Syndrome) Virus outbreak. They had used antibiotics with only partial success and were seeing mortalities as high as 30 percent in the group. […] We also saw less chronic pigs in the treatment group 3% versus 15% in the controls.

swine influenza = format: in vivo, swine (finishing hogs)
chronic laminitis = assay: Horse with chronic laminitis, Ketoprofen in the water; format: in vivo; details: 1 mg per pound in the water for 2 weeks
Text: An equine client with a horse with chronic laminitis was using phenylbutazone to try to control the inflammation and pain associated with the disease. This product had to be given to the horse daily by the owner. […] The results were very good.

[2] = 1 mg/pound for 3 days orally through drinking water

Compound | duration of inhibition of platelet cyclo-oxygenase (platelet cyclo-oxygenase) [h] | chronic pigs [1] [%] | mortality [1] [%] | morbidity at the time of the outbreak (swine influenza; [2]) [%] | mortality (swine influenza; [2]) [%] | average time to market, less than the control group (swine influenza; 1 mg/pound for 3 days orally through drinking water, 150 pound hogs marketed at 260 pounds) [days] | follow-up mass medication with antibiotics (swine influenza; two weeks after the outbreak) | pain compared with previous treatment (phenylbutazone) (chronic laminitis)
CN=C1CCN(c2cccc(C(F)(F)F)c2)N1 [BW540C] | 24 |  |  |  |  |  |  | 
CC(C(=O)O)c1cccc(C(=O)c2ccccc2)c1 (centres unmarked) [Ketoprofen] |  | 3 | 7 | 10 | 2.1 | 9 | did not require any mass medication with antibiotics | less painful
